# Reference: patent US20220023271A1, “COMPOSITION FOR PREVENTING OR TREATING CELLULAR SENESCENCE-RELATED DISEASES COMPRISING ZOTAROLIMUS AS ACTIVE INGREDIENT” (RESEARCH COOPERATION FOUNDATION OF YEUNGNAM UNIVERSITY, priority 2018, published 2022)
# Legend:
# [1] = system: human dermal fibroblasts (HDF); test: CCK-8 cell growth analysis in human fibroblasts; assay type: cell-based
# Procedure: Each cell was treated in a serum-free culture solution containing 0.5 μM doxorubicin for 4 hours. After washing the cells with a serum-free culture solution, the cells were cultured for 4 days in a culture solution containing 10% FBS, and then cellular aging was confirmed by staining with senescence-associated beta galactosidase (SAβG). After dispensing 2×10^5 cells in a 100 mm culture dish, they were cultured in a 37° C., 5% CO2 incubator. When the cells grew to 80-90% in the culture dish, the cells were removed by treatment with trypsin-EDTA, and the number of cells was measured, and the cell population doubling time (PDT) was measured. After each sample was dissolved in DMSO, young cells, replicative senescent cells, and premature senescent cells treated with doxorubicin were treated with 100 nM zotarolimus, 100 nM rapamycin, 100 nM ABT263, respectively. […] Then, the absorbance was measured at 450 nm using a microplate reader. The degree of cell growth was expressed as a relative value for the absorbance of the control group treated with only DMSO as 100%. […]
# [2] = system: human umbilical vascular endothelial cells (HUVEC); test: SAβG activity staining in senescent vascular endothelial cells; assay type: cell-based; details: 4 days
# Procedure: Each cell was treated in a serum-free culture solution containing 0.5 μM doxorubicin for 4 hours. After washing the cells with a serum-free culture solution, the cells were cultured for 4 days in a culture solution containing 10% FBS, and then cellular aging was confirmed by staining with senescence-associated beta galactosidase (SAβG). After dispensing 2×10^5 cells in a 100 mm culture dish, they were cultured in a 37° C., 5% CO2 incubator. When the cells grew to 80-90% in the culture dish, the cells were removed by treatment with trypsin-EDTA, and the number of cells was measured, and the cell population doubling time (PDT) was measured. By successively subculturing the cells in the same process as described above, replication aging was induced. PDT of young fibroblasts was 36 hours, PDT of replicative senescent fibroblasts was 12 days, PDT of young vascular endothelial cells was 24 hours, and PDT of replicative senescent vascular endothelial cells was 7 days. After each sample was dissolved in DMSO, young cells, replicative senescent cells, and premature senescent cells treated with doxorubicin were treated with 100 nM zotarolimus, 100 nM rapamycin, 100 nM ABT263, respectively. After incubation for 4 days in a 37° C., 5% CO2 incubator, the degree of cell growth was confirmed by CCK-8 analysis, the degree of cellular aging was confirmed by senescence-related beta-galactosidase (SAβG) staining, The cells were washed with 1× phosphate buffer solution, and fixed with a phosphate buffer solution containing 3.7% (v/v) paraformaldehyde. After adding 1 mg/ml 5-bromo-4-chloro-3-indolyl-6-D-galactoside, 40 mM citric acid-sodium phosphate (pH 6.0), 5 mM potassium ferricyanide, 5 mM potassium ferrocyanide, 150 mM NaCl, and 2 mM MgCl2 solution, it was reacted at 37° C. for 18 hours. It was stained with eosin as a control stain. Cells stained blue in the cytoplasm were identified using an optical microscope. […]
smiles,measurement,setting,value
CO[C@H]1C[C@@H]2CC[C@@H](C)[C@@](O)(O2)C(=O)C(=O)N2CCCC[C@H]2C(=O)O[C@H]([C@H](C)C[C@@H]2CC[C@H](n3cnnn3)[C@H](OC)C2)CC(=O)[C@H](C)/C=C(\C)[C@@H](O)[C@@H](OC)C(=O)[C@H](C)C[C@H](C)/C=C/C=C/C=C/1C [zotarolimus],cell growth (CCK-8),"[1]; premature senescent fibroblasts by doxorubicin, 100 nM, 4 days, vs DMSO",significantly decreased
same,cell growth with increasing concentration of zotarolimus,"[1]; young vs replicative senescent fibroblasts, concentration-dependent",more markedly decreased in senescent cells compared to young cells
same,SAβG activity staining compared with rapamycin,"[2]; premature senescent HUVEC by doxorubicin, 100 nM each",significantly decreased than rapamycin
same,SAβG activity staining,"[2]; premature senescent HUVEC by doxorubicin, 100 nM, vs DMSO-treated group, p<0.01",significantly decreased
same,SAβG activity,"[2]; replicative senescent HUVEC, 100 nM, vs DMSO-treated group and rapamycin-treated group",significantly decreased
